Reference: patent publication US8697649B2, “Polypeptides, nucleic acid molecule encoding polypeptides, and uses of polypeptides” (China Medical University, priority 2012, dated 2014)
Entries after “also recorded” stand apart in the source; their conditions may differ. Like-named read-outs stand apart in the source and are kept apart here. Where no end group is shown, it is not given here.

Tests used:
[1] = target: T1, insulin receptor (Homo sapiens, UniProt P06213); assay: Whole cell receptor binding assay with 125I-labeled insulin (IM-9 cells)
T1 construct: endogenous in cells; host or cells: IM-9 human lymphocyte cell line
Method: After incubation, the cells were chilled, centrifuged at 2000 rpm for 10 min at 4° C., and the pellets were washed twice with an ice-cold wash buffer (10 mmol/L Tris and 150 mmol/L NaCl, pH 7.6). The pellet was counted by a gamma counter. The assays were performed at least three times for each polypeptide. […] The lower value of EC50 represents a stronger effect on promoting the binding.

[2] = test system: diabetic mice (STZ-induced); assay: Glycated hemoglobin value assay; format: in vivo; conditions: 1×10^−6 mole/kg oral, after 28 days
Method: Glycated hemoglobin value (HbAlc) is the concentration of glucose attached on red blood cells in the blood of an organism. In general, a higher concentration of blood sugar reflects a higher glycated hemoglobin value, while the glycated hemoglobin value is a standard for evaluating the effect of a medicament on treating diabetes. Therefore, in this example, the effect of the polypeptide on controlling the blood sugar values of the mice were evaluated by measuring the glycated hemoglobin value.
In the experimental group, the polypeptides (1×10^−6 mole/kg body weight, 20 μl) were orally administrated to each mouse in the experimental group. In the control group, each mouse was administrated by 20 μl water. The glycated hemoglobin value was measured after 28 days.

[3] = test system: diabetic mice; assay: Measurement of renal index; format: in vivo; conditions: oral, after 28 days, blood
Method: After 28 days, the kidney indexes (BUN and CRE) in the blood of these mice were measured to evaluate the effects of these polypeptides on the renal disorders caused by diabetes.

[4] = test system: diabetic mice; assay: Measurement of liver index; format: in vivo; conditions: oral, after 28 days
Method: The polypeptide of IRBP-50-68 (SEQ ID NO:6) was orally administrated to the diabetic mice in the experimental group by the same method as described in Example 14. After 28 days, the liver indexes (GOT and GPT) of these mice were measured to evaluate the effect of the polypeptide on the hepato disorders caused by diabetes in diabetic mice.

[5] = target: insulin receptor tyrosine kinase (Homo sapiens, UniProt P06213); assay: Receptor binding assay by insulin receptor tyrosine kinase activity; format: biochemical; conditions: poly(Glu,Tyr) substrate, [γ-32P]ATP
Method: The sample was placed in an ice bath for 10 minutes. Then, TCA was added thereinto to precipitate the substrate (poly(Glu,Tyr)) on a filter paper.

[6] = test system: mice (BALB/c, STZ-induced, ob/ob); assay: Blood sugar reducing assay; format: in vivo; conditions: 2.5×10^−9 mole/kg intraperitoneal, 150 minutes
Method: IRBP-1-68 (SEQ ID NO:1), the polypeptides having the segmental amino acid sequences of IRBP, and the polypeptides derived from the substitution of multiple amino acids in the segmental amino acid sequences were analyzed by a blood sugar reducing assay. […] The polypeptides (100 μl, 2.5×10^−9 mole/kg body weight) as shown in Table 11 were administrated to each mouse in an experimental group by intraperitoneal injection. Each mouse in the control group was administrated with 100 μl water. […] After 150 minutes, blood samples were collected from the mouse tails, while the blood sugar value was measured by a glucometer (ACCU-CHEK Advantage, Roche, Germany). The blood sugar values of the mice in the experimental group and control group were compared and analyzed.

[7] = target: T1, insulin receptor; assay: Insulin receptor autophosphorylation assay in IM-9 cells; format: cell-based; conditions: stimulated 15 min at 37° C., immunoblotting, FIG. 2
Method: The assay was conducted by the following steps: The human lymphocyte cell line (IM-9) was serum-starved (RPMI medium supplemented with 0.1% BSA) for 16 h and then stimulated with IRBP-1-68 (SEQ ID NO:1) for 15 min at 37° C., and washed with cold PBS. The cells were lysed to obtain about […] of total proteins, while the immunoprecipitation was conducted by the anti-insulin receptor polyclonal antibody (C-19). Then, the protein was adsorbed onto protein G-agarose beads (Gibco-BRL, Gaithersburg, Md.) for 2 h at 4° C., resolved by SDS-PAGE, and transferred to an Immobilon-P membrane by electroblotting. The membrane was incubated with antiphosphotyrosine antibody (4G10) overnight at 4° C. to conduct the immunoblotting analysis. In FIG. 2, the broader band of the immunoblotting analysis represents a higher protein expression level.

[8] = test system: 3T3-L1 adipocytes; assay: Glucose uptake assay; format: cell-based; conditions: 1 nM insulin plus IRBP-1-68, 30 min, [3H]-2-deoxy-D-glucose 10 min
From the text: A key step for modulating blood sugar is that adipose tissue can uptake glucose from the blood and thereby, reduce blood sugar. Accordingly, this example further used 3T3-L1 adipocytes as an assay platform to conduct the glucose uptake assay. […] The cells were washed three times with ice-cold phosphate buffered saline (PBS) and then solubilized in 0.1% SDS.

[9] = test system: 3T3-L1 adipocytes; assay: Microarray analysis; format: cell-based; conditions: expression increased or decreased up to 2 folds
Method: Total RNAs were extracted from 3T3-L1 adipocytes which were or were not treated with IRBP-1-68 (SEQ ID NO:1) using RNeasy Mini kit (Qiagen, Valencia, Calif., USA). Total RNA was evaluated using Agilent 2100 bioanalyzer (Agilent Technologies, Santa Clara, Calif., USA). The RNA sample with an RNA integrity number greater than 8.0 was selected. Microarray analysis was performed as described previously (see Cheng, W. Y. et al., 2009, Comprehensive evaluation of a novel nuclear factor-κB inhibitor, quinoclamine, by transcriptomic analysis. Brit. J. Pharmacol. 157(5): 746-756; Cheng, H. M. et al., 2010, Application of bioactivity database of Chinese herbal medicine on the therapeutic prediction, drug development, and safety evaluation. J. Ethnopharmacol. 132 (2): 429-437; and Hsiang, C. Y. et al., 2009, Nuclear factor-κB bioluminescence imaging-guided transcriptomic analysis for the assessment of hoist-biomaterial interaction in vivo. Biomaterials 30 (17): 3042-3049, which are entirely incorporated hereinto by reference).

[10] = test system: 3T3-L1 adipocytes; assay: Western blotting analysis of insulin signal pathway-related proteins; format: cell-based; conditions: 3T3-L1 adipocytes treated 16 hours, FIG. 3
Method: 3T3-L1 adipocytes were cultured at 37° C. for 24 hours, treated with IRBP-1-68 (SEQ ID NO:1) for 16 hours, collected using a cell scraper after being washed with ice-cold PBS, and lysed with a 300 μl sample buffer (62.5 mM Tris-HCl, pH 6.8, 2% sodium dodecyl sulfate, 10% glycerol, 50 mM dithiothreitol, 0.1% bromophenol blue). The protein concentration of the cell lysate was determined with a Bradford method (Bio-Rad, Hercules, Calif., USA). The proteins (10 μg) were separated by SDS-PAGE and the protein bands were then transferred electrophoretically to nitrocellulose membranes (Amersham Pharmacia Biotech Inc., Piscataway, N.J., USA). Membranes were blocked in blocking buffer (20 mM Tris-HCl, pH 7.6, 140 mM NaCl, 0.1% Tween-20, 5% skim milk powder) and probed with anti-Akt, anti-phospho-Akt (Ser473), anti-phospho-Akt (Thr308), anti-phospho-PTEN (phosphatase and tensin homolog deleted on Chromosome ten) (Ser380), anti-phospho-GSK-3β (glycogensynthasekinase-3β) (Ser9), anti-phospho-Raf (Ser259), anti-phospho-PDK1 (phosphoinositide-dependent kinase 1) (Ser241) antibodies (Cell Signaling Technology, Beverly, Mass., USA). The result was shown in FIG. 3, wherein the values shown in FIG. 3 represent the intensity of the bands in western blotting analysis. A higher value represents a higher expression level of the target protein.

[11] = test system: 3T3-L1 adipocytes; assay: Immunochemical analysis of GLUT4; format: cell-based; conditions: FIG. 4
Method: Immunochemical analysis was conducted by the following method: 3T3-L1 adipocytes were cultured and fixed on a cover slide, and incubated with a 1:50 diluted mouse monoclonal antibody against GLUT4 (Millipore, Billerica, Mass., USA) at 4° C. overnight. Then, the cells were incubated with biotinylated secondary antibody (Zymed Laboratories, South San Francisco, Calif., USA) at room temperature for 20 min. Then, the slides were incubated with avidin-biotin complex reagent and stained with 3,3′-diaminobenzidine (HISTOSTAIN®-Plus Kit, Zymed Laboratories, South San Francisco, Calif., USA).

[12] = STZ-induced mice, glucose 1 g/kg

## DFRCDRVRVWVTERGIVARPPTIG [IRBP-45-68]
[1]; IM-9 cells, 16° C., 90 min
  EC50: > 25 nM

## GAAAKAVIERENPRVRVI [IRBP-17-35]
[1]
  EC50: > 25 nM

## IVARPPAIG [IRBP-MC]
[1]; IM-9 cells, 16° C., 90 min
  EC50: 0.86 ± 0.05 nM

## IVARPPTIG [IRBP-60-68]
[1]
  EC50: 0.77 ± 0.04 nM
[2]
  glycated hemoglobin value: 5.73 ± 0.11 %
[3]
  BUN: 73.17 ± 29.95
  CRE: 0.17 ± 0.04

## IVYQVPTIG [IRBP-MT]
[1]; IM-9 cells, 16° C., 90 min
  EC50: 0.77 ± 0.02 nM

## RVRVWVTERGIVARPPTIG [IRBP-50-68]
[2]
  glycated hemoglobin value: 5.93 ± 0.55 %
[4]
  GOT: 247.89 ± 97.38
  GPT: 135.72 ± 30.72
[3]
  BUN: 107.25 ± 42.99
  CRE: 0.191 ± 0.12

## RYKYQCFYI (optimal docking polypeptide of insulin receptor) [IRBP-9B]
[5]
  activity of insulin receptor tyrosine kinase: 79.76±5.64 U/ml
[6]; BALB/c mice, glucose 4 g/kg
  blood sugar inhibition ratio: 61.0 ± 2.5 %

## RYKYQCWYI (optimal docking polypeptide of insulin receptor) [IRBP-9D]
[5]
  activity of insulin receptor tyrosine kinase: 65.95 ± 1.74 U/ml

## RYKYQWFYI (optimal docking polypeptide of insulin receptor) [IRBP-9A]
[5]
  activity of insulin receptor tyrosine kinase: 40.34 ± 1.94 U/ml
[6]; [12]
  blood sugar inhibition ratio: 34.2 ± 13.6%

## RYKYQWWYI (optimal docking polypeptide of insulin receptor) [IRBP-9C]
[5]
  activity of insulin receptor tyrosine kinase: 44.18 ± 3.61 U/ml
[6]; [12]
  blood sugar inhibition ratio: 22.6 ± 9.0%

## SRCQGKSSWPQLVGSTGAAAKAVIERENPRVRAVIIKVGSGATKDFRCDRVRVWVTERGIVARPPTIG [IRBP-1-68]
[7]
  insulin receptor autophosphorylation (ratio of phosphorylated insulin receptor to insulin receptor): increased along with the increment of IRBP-1-68 (SEQ ID NO:1) concentration; also recorded: can induce insulin receptor autophosphorylation
[8]
  Ratio (radioactivity, glucose uptake): 1.79 ± 0.49
[9]; adipocytokine signal pathway
  number of the genes with changed expression level (total gene number of the pathway): 16 (71)
[9]; insulin signal pathway
  number of the genes with changed expression level (total gene number of the pathway): 28 (136)
[10]
  protein expression levels of insulin signal pathway-related genes (PDK-1, phosphorylated-AKt Thr 308, phosphorylated-AKt Ser 473, GLUT4): can increase the protein expression levels
[11]
  GLUT4 expression by immunochemical staining: can promote 3T3-L1 adipocytes to express GLUT4
[6]; BALB/c mice, glucose 4 g/kg
  blood sugar inhibition ratio: 68.9 ± 0.9 %
[6]; [12]
  blood sugar inhibition ratio: 37.3 ± 3.8%
[6]; ob/ob mice, glucose 1 g/kg
  blood sugar inhibition ratio: 55.6 ± 12.9 %

## VIIKVGSGATKDFRCDRVR [IRBP-34-52]
[1]; IM-9 cells, 16° C., 90 min
  EC50: > 25 nM
